Results as given in article PMC6028453, “BrlR from Pseudomonas aeruginosa is a receptor for both cyclic di-GMP and pyocyanin” (Nature Communications, 2018).

Experiments:
BrlR mutant Y40A = target: T1, BrlR mutant Y40A (Pseudomonas aeruginosa, UniProt Q9HUT5, Y40A); assay: FP binding assay, BrlR Y40A
T1 construct: His6-SUMO (N, cleaved yes); made in house; host or cells: E. coli BL21 DE3
Procedure: (§1) F-c-di-GMP and F-c-di-AMP both contain a fluorophore at one of the 2′-ribose hydroxyls of c-di-GMP and c-di-AMP, respectively (Fig. 2f). To measure the binding of c-di-GMP and c-di-AMP to BrlR variants, 1 nM F-c-di-GMP or F-c-di-AMP was incubated with increasing amounts of indicated BrlR WT, BrlR mutation, or BrlR-C in reaction buffer (25 mM HEPES, 100 mM NaCl, pH 7.5) at 25 °C for 20 min. 1 nM fluorescein was incubated with BrlR WT in the same reaction buffer at 25 °C. FP measurements were conducted on a Synergy 4 Microplate Reader (BioTek) at 25 °C. All experiments were performed in triplicate. The curves were fitted to deduce binding affinities by GraphPad Prism 5.
(§2) BrlR–c-di-GMPs interactions in two separate c-di-GMP binding sites
(§3) In the first binding site, c-di-GMP is half accommodated by the antiparallel β-sheet and two residues (M1 and D35). In detail, the backbone amide protons of the first M1 residue form a hydrogen bond (H-bond) with the phosphate oxygen atom of c-di-GMP, and the side chain of R31 forms two H-bonds with the Gua1 base. The residue D35 also forms an H-bond with the Gua1 base. The aromatic ring of Y40 interacts with the Gua1 base through a hydrophobic π-π interaction. In addition, the hydroxyl group of the Y270 side chain from another subunit interacts with the phosphate 2 of c-di-GMP via an H-bond (Fig. 2d). […]

BrlR R31A DNA binding = target: T2, BrlR R31A DNA binding (Pseudomonas aeruginosa, UniProt Q9HUT5, R31A); assay: EMSA, BrlR R31A; type: biochemical
T2 construct: His6-SUMO (N, cleaved yes); made in house; host or cells: E. coli BL21 DE3
Procedure: (§4) A 6-carboxy-fluorescein (FAM)-labeled 36-bp brlR promoter DNA (PbrlR) or 80-bp mexA/mexE promoter DNA (PmexA/PmexE) probes (~0.375 pmol), BrlR protein and varying amounts of inducers were incubated in binding buffer (10 mM Tris HCl [pH 7.4], 50 mM KCl, 1 mM DTT, […] and 5 ng/mL poly [dI-dC]) for 60 min at 25 °C. Finally, glycerol was added to a concentration of 6.5%. The samples were subjected to a 5% polyacrylamide gel electrophoresis and run in 0.5 × Tris-borate-EDTA buffer at 80 V for 1 h at room temperature. Imaging and data analyses were performed using a Typhoon Scanner (GE Healthcare) and Imagequant software. The probes used are listed in Supplementary Table 1.

BrlR Y270A DNA binding = target: T3, BrlR Y270A DNA binding (Pseudomonas aeruginosa, UniProt Q9HUT5, Y270A); assay: EMSA, BrlR Y270A; type: biochemical
T3 construct: His6-SUMO (N, cleaved yes); made in house; host or cells: E. coli BL21 DE3
Procedure: as §4

BrlR Y40A DNA binding = target: T4, BrlR Y40A DNA binding (Pseudomonas aeruginosa, UniProt Q9HUT5, Y40A); assay: EMSA, BrlR Y40A; type: biochemical
T4 construct: His6-SUMO (N, cleaved yes); made in house; host or cells: E. coli BL21 DE3
Procedure: as §4

[1] = target: T5, C2E mut3 (R31A/D35A/Y40A/R67A/R86A/Y270A) DNA binding (Pseudomonas aeruginosa, UniProt Q9HUT5, D35A/R31A/R67A/R86A/Y270A/Y40A); assay: EMSA, C2E mut3; type: biochemical
T5 construct: His6-SUMO (N, cleaved yes); made in house; host or cells: E. coli BL21 DE3
Procedure: as §4

BrlR mutant R31A = target: T6, BrlR mutant R31A (Pseudomonas aeruginosa, UniProt Q9HUT5, R31A); assay: FP binding assay, BrlR R31A
T6 construct: His6-SUMO (N, cleaved yes); made in house; host or cells: E. coli BL21 DE3
Procedure: as §1, §2, §3

brlR transcription = assay: qRT-PCR of brlR transcript; type: cell-based, P. aeruginosa PAO1; details: elevated c-di-GMP by diguanylate cyclase PA4843 in PAO1
Procedure: PAO1 WT strains were grown under different conditions. For c-di-GMP effects, overexpression of PA4843 in PAO1 (PAO1/pHERD20T-PA4843) relative to WT cells (PAO1/ pHERD20T) was determined. When P. aeruginosa strains entered mid-log phase, arabinose was added to induce gene expression. To test pyocyanin’s effect, a P. aeruginosa PAO1 WT strain cells with high pyocyanin production was determined relative to a ΔphzA1-G1/phzA2-G2 strain not producing phenazine and a ΔphzMSH strain not producing pyocyanin.
Total RNA was extracted using a MiniBEST Universal RNA Extraction Kit (TaKaRa) and cDNA synthesis was performed using a PrimeScript RT reagent Kit (TaKaRa). Primers for RT-PCR listed in Supplementary Table 1 were designed using the program PrimerExpress (Applied Biosystems). The RT-PCR reactions were performed on a CFX96 Real-Time PCR Detection System (Bio-Rad) using SYBR Premix Ex Taq™ (TaKaRa). Expression of the target genes was normalized to the expression of 16 S RNA. The relative transcript abundance was calculated according to the 2^−ΔΔCt method. Five biological replicates were performed per sample. The data were analyzed with a one-tailed t-test (***P ≤ 0.001).

T3 sequence (Q9HUT5 whole entry Y270A): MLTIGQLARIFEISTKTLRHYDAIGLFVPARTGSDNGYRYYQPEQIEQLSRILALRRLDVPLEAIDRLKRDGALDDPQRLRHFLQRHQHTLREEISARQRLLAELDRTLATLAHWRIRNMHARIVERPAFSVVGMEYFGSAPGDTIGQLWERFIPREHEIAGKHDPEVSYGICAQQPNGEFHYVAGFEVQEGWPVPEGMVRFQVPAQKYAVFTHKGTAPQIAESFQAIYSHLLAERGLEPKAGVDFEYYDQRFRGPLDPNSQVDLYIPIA
T5 sequence (Q9HUT5 whole entry R31A/D35A/Y40A/R67A/R86A/Y270A): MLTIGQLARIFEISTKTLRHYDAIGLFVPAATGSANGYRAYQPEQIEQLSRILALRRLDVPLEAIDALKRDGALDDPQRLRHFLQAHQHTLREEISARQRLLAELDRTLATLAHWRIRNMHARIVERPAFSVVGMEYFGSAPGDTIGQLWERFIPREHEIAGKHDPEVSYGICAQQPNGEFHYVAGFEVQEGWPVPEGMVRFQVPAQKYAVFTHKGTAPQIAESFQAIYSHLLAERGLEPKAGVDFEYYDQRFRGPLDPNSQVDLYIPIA
T2 sequence (Q9HUT5 whole entry R31A): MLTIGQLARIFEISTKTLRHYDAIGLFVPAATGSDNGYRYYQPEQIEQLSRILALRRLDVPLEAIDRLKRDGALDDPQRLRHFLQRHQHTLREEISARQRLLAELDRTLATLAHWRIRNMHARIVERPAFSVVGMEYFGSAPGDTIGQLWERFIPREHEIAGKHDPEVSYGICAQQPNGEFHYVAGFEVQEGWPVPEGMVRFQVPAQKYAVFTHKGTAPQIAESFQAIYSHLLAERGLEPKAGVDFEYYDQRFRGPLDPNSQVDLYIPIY
T6 sequence (Q9HUT5 whole entry R31A): as above
T1 sequence (Q9HUT5 whole entry Y40A): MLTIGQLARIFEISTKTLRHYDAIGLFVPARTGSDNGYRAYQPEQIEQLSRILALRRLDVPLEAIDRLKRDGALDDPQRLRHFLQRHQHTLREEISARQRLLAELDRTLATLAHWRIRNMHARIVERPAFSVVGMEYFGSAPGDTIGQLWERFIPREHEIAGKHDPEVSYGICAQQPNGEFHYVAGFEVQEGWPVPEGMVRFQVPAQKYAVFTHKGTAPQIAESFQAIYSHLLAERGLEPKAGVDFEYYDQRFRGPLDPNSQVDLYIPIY
T4 sequence (Q9HUT5 whole entry Y40A): as above

Nc1nc2c(ncn2[C@@H]2O[C@@H]3COP(=O)(O)O[C@H]4[C@@H](O)[C@H](n5cnc6c(=O)[nH]c(N)nc65)O[C@@H]4COP(=O)(O)O[C@H]3[C@H]2O)c(=O)[nH]1 [c-di-GMP, cyclic diguanylate monophosphate]
Kd (BrlR mutant Y40A): 34.2 ± 2.6 µM
DNA bound in the presence vs absence of c-di-GMP (BrlR R31A DNA binding): ~ 1.3 fold
DNA bound in the presence vs absence of c-di-GMP (BrlR Y270A DNA binding): ~ 3.4 fold
DNA bound in the presence vs absence of c-di-GMP (BrlR Y40A DNA binding): ~ 1.1 fold
effect of c-di-GMP on DNA binding [1]: did not have any effect
Kd (BrlR mutant R31A): 42.7 ± 5.4 µM
transcriptional level of brlR, pHERD20T-PA4843 strain vs pHERD20T-empty strain (brlR transcription): 4.5 ± 1.3 fold
